Results published in patent EP0352863A2, “1,4-Dihydropyridine dicarboxylic acid derivatives” (ZAMBON GROUP S.p.A., priority 1988, dated 1990).
pIC50: −log10 of the molar value. Like-named read-outs stand apart in the source and are kept apart here.

Tests used:
[1] = biological target: T1, beta₂ lung receptor (Mus musculus, UniProt P18762); experiment: binding test, beta2 lung receptors
T1 construct: Ki (nM) mouse lung beta₂ receptors; from tissue; host or cells: mouse lung
Excerpt: (§1) Moreover, the beta-blocking activity has been tested by means of the binding test both towards beta₁ heart receptors and towards beta₂ lung receptor in mouse according to the methods described in the J. Biol. Chem., 253, 5090, (1978) and in the Br. j. Pharmacol., 68, 57, (1980).

[2] = system: anesthetized dog; experiment: heart rate and mean arterial pressure in the anesthetized dog; type: in vivo; conditions: doses of from 100 to 400 ug/kg
Protocol: The compounds of formula I produce antihypertensive effects in mouse and dog with concomitant reduction of the heart rate.
For example, in the anesthetized dog, compound 1 caused a heart rate reduction of from 9 to 23% and a reduction of the mean arterial pressure of from 3 to 15% at doses of from 100 to 400 ug/kg; at the same doses diastereoisomer A caused a heart rate reduction of from 17 to 30% and a mean arterial pressure reduction of from 12 to 25%, respectively.

[3] = biological target: T2, beta₁ heart receptors (Mus musculus, UniProt P34971); experiment: binding test, beta1 heart receptors
T2 construct: from tissue; host or cells: mouse heart
T2 sequence (P34971 whole entry): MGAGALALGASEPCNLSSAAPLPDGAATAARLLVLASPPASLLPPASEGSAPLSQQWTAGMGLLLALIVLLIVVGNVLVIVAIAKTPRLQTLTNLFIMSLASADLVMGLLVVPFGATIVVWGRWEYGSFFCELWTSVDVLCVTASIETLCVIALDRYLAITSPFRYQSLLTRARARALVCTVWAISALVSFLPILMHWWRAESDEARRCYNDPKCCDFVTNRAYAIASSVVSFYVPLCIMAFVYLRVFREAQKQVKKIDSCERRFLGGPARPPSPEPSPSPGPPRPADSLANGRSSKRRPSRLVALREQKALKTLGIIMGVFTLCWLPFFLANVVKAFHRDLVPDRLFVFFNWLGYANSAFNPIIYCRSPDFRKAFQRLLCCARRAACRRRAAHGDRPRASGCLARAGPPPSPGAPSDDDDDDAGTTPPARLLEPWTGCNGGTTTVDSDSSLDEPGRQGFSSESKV
Excerpt: as §1

[4] = system: rabbit mesenteric artery; experiment: calcium-antagonist activity, rabbit mesenteric artery test (antagonism of 3 mM Ca++ in Krebs depolarizer); conditions: Ca++ submaximal concentration 3mM, read-out: IC₅₀
Protocol: Calcium-antagonist activity of the compounds of formula I has been tested as capability of antagonizing the effect of Ca⁺⁺ submaximal concentrations (3mM) on preparations of rabbit mesenteric artery in Krebs depolarizer, prepared according to Towart "J. Cardiovasc. Pharmacol. 4, 895, (1982)".
The compounds of this invention, tested as calcium antagonist agents on the rabbit mesnteric artery show an IC₅₀ of from 10 to 200 (nM); Ki affinity for beta₁ receptors is of from 30 to 2000 (nM) and for beta₂ receptors is of from 20 to 5000 (nM).

T1 sequence (P18762 whole entry): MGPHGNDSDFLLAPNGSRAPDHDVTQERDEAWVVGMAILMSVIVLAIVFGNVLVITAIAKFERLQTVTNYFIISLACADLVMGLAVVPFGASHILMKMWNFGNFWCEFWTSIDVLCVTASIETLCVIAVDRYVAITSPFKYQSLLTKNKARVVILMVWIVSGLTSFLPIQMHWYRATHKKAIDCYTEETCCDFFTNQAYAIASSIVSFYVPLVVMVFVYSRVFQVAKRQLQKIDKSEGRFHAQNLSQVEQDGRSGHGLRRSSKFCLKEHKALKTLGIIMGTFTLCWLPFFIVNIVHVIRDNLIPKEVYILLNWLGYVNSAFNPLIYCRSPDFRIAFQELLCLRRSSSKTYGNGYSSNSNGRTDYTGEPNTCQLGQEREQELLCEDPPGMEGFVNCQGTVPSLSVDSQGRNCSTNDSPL

For `CCOC(=O)C1=C(C)NC(CN(C)CC(C)(C)NCC(O)COc2ccccc2OC)=C(C(=O)OCC)C1c1cccc([N+](=O)[O-])c1` (single isomer, unassigned) [diastereoisomer A], the Ki [1] was 2050 nM, the “duration of hypotensive effect and bradycardia” value [2] was “lasting over five hours” and the Ki [3] was 600 nM. For the same compound, the pIC50 [4] was 7.82.
`CCOC(=O)C1=C(C)NC(CN(C)CC(C)(C)NCC(O)COc2ccccc2OC)=C(C(=O)OCC)C1c1cccc([N+](=O)[O-])c1` (single isomer, unassigned) [diastereoisomer B] showed a Ki [1] of 560 nM, a Ki [3] of 165 nM and a pIC50 [4] of 6.92.
Compound `CCOC(=O)C1=C(C)NC(CN(C)CC(C)(C)NCC(O)COc2ccccc2OC)=C(C(=O)OCC)C1c1cccc([N+](=O)[O-])c1` (stereo not shown) [Compound 1, ethyl 1,4-dihydro-6-methyl-2-(N-methyl-N-(2-(2-hydroxy-3-(2-methoxyphenoxy)-propylamino)-2-methylpropyl)aminomethyl)-4-(3-nitrophenyl)-3,5-pyridinedicarboxylate] has a pIC50 ([4]; Oryctolagus cuniculus) of 7.33.
`CC(C)NCC(O)COc1ccc(CC(N)=O)cc1` (stereo not shown) [atenolol, reference compound] gave a Ki [1] of 18000 nM and a Ki [3] of 840 nM.
